The supplement of paper PMC10307832

Experiments:
Assay in all cases: relative viability (nuclei count vs DMSO), 5 days (fraction); higher = more cells survive
VE-821 + Luminespib = compound: CS(=O)(=O)c1ccc(-c2cnc(N)c(C(=O)Nc3ccccc3)n2)cc1 [VE-821] + CCNC(=O)c1noc(-c2cc(C(C)C)c(O)cc2O)c1-c1ccc(CN2CCOCC2)cc1 [Luminespib] (partner 0.01 µM)
Outline: (§1)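 Values are medians from duplicate plates. Each reflects relative viability, defined as the nuclei count of treated wells over that of vehicle wells. Lung cancer cell lines in 1536-well plates were pin-tool dosed one day after seeding with one drug alone or with a fixed anchor-drug dose plus five library-drug doses (not always all listed) in √10 steps, then fixed, stained and imaged at 4× after 5 days.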

VE-821 + Lapatinib = compound: CS(=O)(=O)c1ccc(-c2cnc(N)c(C(=O)Nc3ccccc3)n2)cc1 [VE-821] + CS(=O)(=O)CCNCc1ccc(-c2ccc3ncnc(Nc4ccc(OCc5cccc(F)c5)c(Cl)c4)c3c2)o1 [Lapatinib] (partner 2 µM)
Outline: as §1

Vismodegib + Navitoclax = compound: CS(=O)(=O)c1ccc(C(=O)Nc2ccc(Cl)c(-c3ccccn3)c2)c(Cl)c1 [Vismodegib] + CC1(C)CCC(c2ccc(Cl)cc2)=C(CN2CCN(c3ccc(C(=O)NS(=O)(=O)c4ccc(N[C@H](CCN5CCOCC5)CSc5ccccc5)c(S(=O)(=O)C(F)(F)F)c4)cc3)CC2)C1 [Navitoclax] (partner 0.5 µM)
Outline: as §1

Ruxolitinib + OSI-027 = compound: N#CC[C@H](C1CCCC1)n1cc(-c2ncnc3[nH]ccc23)cn1 [Ruxolitinib] + COc1cccc2cc(-c3nc([C@H]4CC[C@H](C(=O)O)CC4)n4ncnc(N)c34)[nH]c12 [OSI-027] (partner 0.5 µM)
Outline: as §1

| Cell Line | relative viability (VE-821 + Luminespib; first compound 0.08 µM) | relative viability (VE-821 + Luminespib; first compound 0.253 µM) | relative viability (VE-821 + Luminespib; first compound 0.8 µM) | relative viability (VE-821 + Luminespib; first compound 2.53 µM) | relative viability (VE-821 + Luminespib; first compound 8 µM) | relative viability (VE-821 + Lapatinib; first compound 0.08 µM) | relative viability (VE-821 + Lapatinib; first compound 0.253 µM) | relative viability (VE-821 + Lapatinib; first compound 0.8 µM) | relative viability (VE-821 + Lapatinib; first compound 2.53 µM) | relative viability (VE-821 + Lapatinib; first compound 8 µM) | relative viability (Vismodegib + Navitoclax; first compound 0.08 µM) | relative viability (Vismodegib + Navitoclax; first compound 0.253 µM) | relative viability (Vismodegib + Navitoclax; first compound 0.8 µM) | relative viability (Vismodegib + Navitoclax; first compound 2.53 µM) | relative viability (Vismodegib + Navitoclax; first compound 8 µM) | relative viability (Ruxolitinib + OSI-027; first compound 0.08 µM) | relative viability (Ruxolitinib + OSI-027; first compound 0.253 µM) | relative viability (Ruxolitinib + OSI-027; first compound 0.8 µM) | relative viability (Ruxolitinib + OSI-027; first compound 2.53 µM) | relative viability (Ruxolitinib + OSI-027; first compound 8 µM) |
| --- | --- | --- | --- | --- | --- | --- | --- | --- | --- | --- | --- | --- | --- | --- | --- | --- | --- | --- | --- | --- |
| H3255 | 0.903 | 0.782 | 0.78 | 0.915 | 0.973 | 0.229 | 0.256 | 0.378 | 0.241 | 0.264 | 0.614 | 0.441 | 0.462 | 0.439 | 0.518 | 0.371 | 0.492 | 0.624 | 0.591 | 0.585 |
| NCI-H1915 | 0.816 | 0.752 | 0.698 | 0.726 | 0.525 | 1 | 0.999 | 0.994 | 1.04 | 0.88 | 0.773 | 0.805 | 0.747 | 0.729 | 0.759 | 0.622 | 0.619 | 0.663 | 0.463 | 0.464 |
| NCI-H23 | 0.202 | 0.223 | 0.214 | 0.236 | 0.213 | 1.19 | 1.07 | 1.27 | 0.989 | 0.394 | 0.89 | 0.735 | 0.926 | 0.811 | 0.86 | 0.743 | 0.617 | 0.696 | 0.496 | 0.522 |
| EMC-BAC-2 | 1.36 | 1.15 | 1.09 | 1.11 | 0.931 | 1.04 | 0.902 | 0.97 | 1.01 | 0.873 | 1.11 | 1.15 | 1.23 | 1.13 | 1.19 | 0.391 | 0.344 | 0.358 | 0.359 | 0.224 |
| NCI-H2009 | 1.03 | 0.974 | 0.918 | 1.09 | 0.863 | 0.89 | 0.959 | 0.893 | 0.997 | 0.977 | 1.15 | 1.12 | 1.2 | 1.17 | 1.17 | 0.668 | 0.609 | 0.789 | 0.54 | 0.281 |
| NCI-H460 | 0.0302 | 0.0482 | 0.0362 | 0.0342 | 0.0308 | 1.33 | 0.996 | 0.82 | 0.729 | 0.398 | 1.01 | 0.995 | 1.28 | 1.06 | 1.21 | 0.686 | 0.575 | 0.721 | 0.583 | 0.615 |
| 201T | 1.06 | 1.03 | 1.06 | 1.06 | 0.934 | 1.1 | 0.937 | 0.966 | 1.01 | 0.976 | 1.23 | 1.18 | 1.15 | 1.23 | 1.17 | 0.768 | 0.722 | 0.809 | 0.919 | 0.905 |
| NCI-H1993 | 1.1 | 0.857 | 0.67 | 0.655 | 0.704 | 0.947 | 0.837 | 0.75 | 0.784 | 0.826 | 1.1 | 0.913 | 0.884 | 0.759 | 0.705 | 0.535 | 0.549 | 0.538 | 0.584 | 0.541 |
| RERF-LC-KJ | 1.31 | 1.06 | 1.06 | 1.18 | 0.931 | 0.92 | 0.756 | 0.798 | 0.772 | 0.715 | 0.997 | 1.08 | 0.85 | 0.756 | 0.802 | 0.56 | 0.442 | 0.685 | 0.537 | 0.536 |
| NCI-H1755 | 0.514 | 0.344 | 0.427 | 0.468 | 0.201 | 1.09 | 0.997 | 0.961 | 0.981 | 0.861 | 0.961 | 0.957 | 1.04 | 0.934 | 0.985 | 0.748 | 0.732 | 0.683 | 0.606 | 0.566 |
| NCI-H1666 | 1.04 | 1.01 | 1.1 | 1.03 | 0.761 | 0.839 | 0.57 | 0.713 | 0.623 | 0.462 | 1.08 | 1.02 | 1.15 | 0.936 | 0.934 | 0.877 | 0.842 | 0.864 | 0.782 | 0.968 |
| NCI-H2085 | 0.439 | 0.457 | 0.385 | 0.411 | 0.309 | 0.8 | 0.758 | 0.507 | 0.815 | 0.563 | 1.11 | 1.06 | 1.12 | 1.06 | 1.12 | 0.674 | 0.633 | 0.745 | 0.672 | 0.647 |
| BEN | 0.414 | 0.374 | 0.376 | 0.344 | 0.322 | 0.845 | 0.775 | 0.657 | 0.8 | 0.662 | 0.0646 | 0.062 | 0.0698 | 0.0746 | 0.0684 | 0.336 | 0.299 | 0.304 | 0.266 | 0.267 |
| NCI-H1395 | 0.7 | 0.677 | 0.704 | 0.636 | 0.525 | 0.902 | 1.15 | 0.903 | 0.987 | 0.768 | 1.02 | 1.09 | 1.01 | 1.11 | 1.23 | 0.578 | 0.576 | 0.661 | 0.564 | 0.666 |
| LCLC-97TM1 | 0.821 | 0.795 | 0.952 | 0.993 | 0.709 | 0.75 | 0.716 | 0.669 | 0.848 | 0.393 |  |  | 0.443 |  | 0.63 | 0.502 | 0.3 | 0.362 | 0.488 | 0.563 |
| HCC-827 | 0.599 | 0.686 | 0.277 | 0.696 | 0.489 | 0.221 | 0.201 | 0.189 | 0.201 | 0.209 | 1.03 | 1.04 | 0.961 | 1.03 | 1.02 |  | 0.516 | 0.586 | 0.537 | 0.714 |
